Data published in the supplement of paper PMC10307832.

Tests used:
Test in all cases: relative viability (nuclei count vs DMSO), 5 days (fraction); higher = more cells survive
[1] = compound: CN(C)C[C@@H]1CCn2cc(c3ccccc32)C2=C(C(=O)NC2=O)c2cn(c3ccccc23)CCO1 [Ruboxistaurin] + CC1(C)CCC(c2ccc(Cl)cc2)=C(CN2CCN(c3ccc(C(=O)NS(=O)(=O)c4ccc(N[C@H](CCN5CCOCC5)CSc5ccccc5)c(S(=O)(=O)C(F)(F)F)c4)cc3)CC2)C1 [Navitoclax] (partner 0.5 µM)
Summary of the method: (§1)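 For relative viability, nuclei counts in treated wells were divided by those in vehicle wells. Lung cancer cell lines had been pin-tool dosed in 1536-well plates the day after seeding and cultured for 5 days, then fixed and stained in one step (final 0.05% Triton X-100, 1% formaldehyde, 1 ug/ml Hoechst) and imaged at 4×. Doses were one drug alone or a fixed anchor-drug dose plus five library-drug doses (not always all listed) in √10 steps, and values are duplicate-plate medians.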

[2] = compound: CN(C)C[C@@H]1CCn2cc(c3ccccc32)C2=C(C(=O)NC2=O)c2cn(c3ccccc23)CCO1 [Ruboxistaurin] + COc1cc2c(Oc3ccc(NC(=O)C4(C(=O)Nc5ccc(F)cc5)CC4)cc3F)ccnc2cc1OCCCN1CCOCC1 [Foretinib] (partner 0.25 µM)
Summary of the method: as §1

[3] = compound: CN(C)C[C@@H]1CCn2cc(c3ccccc32)C2=C(C(=O)NC2=O)c2cn(c3ccccc23)CCO1 [Ruboxistaurin] + Cc1nc(Nc2ncc(C(=O)Nc3c(C)cccc3Cl)s2)cc(N2CCN(CCO)CC2)n1 [Dasatinib] (partner 0.075 µM)
Summary of the method: as §1

Ruboxistaurin + Olaparib = compound: CN(C)C[C@@H]1CCn2cc(c3ccccc32)C2=C(C(=O)NC2=O)c2cn(c3ccccc23)CCO1 [Ruboxistaurin] + O=C(c1cc(Cc2n[nH]c(=O)c3ccccc23)ccc1F)N1CCN(C(=O)C2CC2)CC1 [Olaparib] (partner 8 µM)
Summary of the method: as §1

[4] = compound: CN(C)C[C@@H]1CCn2cc(c3ccccc32)C2=C(C(=O)NC2=O)c2cn(c3ccccc23)CCO1 [Ruboxistaurin] + Nc1ncn([C@H]2C[C@H](O)[C@@H](CO)O2)c(=O)n1 [Decitabine] (partner 2 µM)
Summary of the method: as §1

Row | Cell Line | relative viability ([1]; first compound 0.08 µM) | relative viability ([1]; first compound 0.8 µM) | relative viability ([1]; first compound 2.53 µM) | relative viability ([1]; first compound 8 µM) | relative viability ([2]; first compound 0.08 µM) | relative viability ([2]; first compound 0.8 µM) | relative viability ([2]; first compound 2.53 µM) | relative viability ([2]; first compound 8 µM) | relative viability ([3]; first compound 0.08 µM) | relative viability ([3]; first compound 0.8 µM) | relative viability ([3]; first compound 2.53 µM) | relative viability ([3]; first compound 8 µM) | relative viability (Ruboxistaurin + Olaparib; first compound 0.08 µM) | relative viability (Ruboxistaurin + Olaparib; first compound 0.8 µM) | relative viability (Ruboxistaurin + Olaparib; first compound 2.53 µM) | relative viability (Ruboxistaurin + Olaparib; first compound 8 µM) | relative viability ([4]; first compound 0.08 µM) | relative viability ([4]; first compound 0.8 µM) | relative viability ([4]; first compound 2.53 µM) | relative viability ([4]; first compound 8 µM)
1 | NCI-H2405 | 1.09 | 0.654 | 0.917 | 0.963 | 1.07 | 0.961 | 0.998 | 1.01 | 0.184 | 0.239 | 0.174 | 0.222 | 0.918 | 0.774 | 0.878 | 0.874 | 0.798 | 0.676 | 0.763 | 0.756
2 | NCI-H2009 | 1.21 | 1.16 | 1.18 | 1.17 | 1.29 | 1.22 | 1.28 | 1.24 | 0.341 | 0.225 | 0.267 | 0.225 | 0.764 | 0.593 | 0.748 | 0.699 | 0.39 | 0.371 | 0.411 | 0.406
3 | HCC-78 | 0.802 | 0.686 | 0.812 | 0.793 | 0.553 | 0.593 | 0.546 | 0.528 | 0.52 | 0.399 | 0.377 | 0.283 | 0.821 | 0.762 | 0.935 | 0.746 | 0.636 | 0.663 | 0.756 | 0.635
4 | NCI-H2170 | 0.57 | 0.592 | 0.581 | 0.56 | 1.02 | 1.02 | 1.05 | 1.05 | 0.592 | 0.61 | 0.489 | 0.519 | 0.659 | 0.499 | 0.588 | 0.534 | 0.464 | 0.472 | 0.509 | 0.458
5 | NCI-H1793 | 0.503 | 0.382 | 0.468 | 0.604 | 0.637 | 0.576 | 0.652 | 0.687 | 0.371 | 0.377 | 0.442 | 0.506 | 0.875 |  | 1.17 | 0.873 | 0.461 |  | 0.614 | 0.549
6 | ABC-1 |  |  |  |  | 1.21 | 1.13 | 1.26 | 1.11 | 0.638 | 0.56 | 0.633 | 0.465 | 1.27 | 0.81 | 1.03 | 1.15 | 1.19 | 0.696 | 1.26 | 0.942
7 | NCI-H1703 | 1.14 | 0.992 | 0.991 | 0.525 | 0.367 |  | 0.408 | 0.327 |  |  |  |  | 0.447 | 0.411 | 0.622 | 0.305 |  |  |  | 
8 | NCI-H661 |  |  |  |  | 1.05 | 0.996 | 1.07 | 1.07 | 0.982 | 0.776 | 1.01 | 1.04 | 0.844 | 0.717 | 0.795 | 0.81 | 0.563 | 0.555 | 0.578 | 0.61
9 | LCLC-103H |  |  |  |  | 0.783 | 0.612 | 0.777 | 0.56 | 0.641 | 0.386 | 0.482 | 0.389 | 0.735 | 0.69 | 0.729 | 0.676 | 0.805 | 0.648 | 0.726 | 0.699
10 | NCI-H2342 |  |  |  |  | 1.2 | 0.83 | 1.06 | 1.18 | 0.364 | 0.312 | 0.303 | 0.277 | 0.414 | 0.483 | 0.511 | 0.436 | 0.689 | 0.737 | 0.757 | 0.819
11 | SW 900 |  |  |  |  | 0.918 | 0.872 | 0.833 | 0.955 | 0.838 | 0.436 | 0.64 | 0.383 | 0.891 | 0.829 | 1.03 | 0.964 | 0.4 | 0.395 | 0.5 | 0.566
12 | NCI-H522 |  |  |  |  |  |  |  |  | 0.835 | 0.83 | 0.953 | 0.719 | 0.71 | 0.676 | 0.637 | 0.728 | 0.753 | 0.671 | 0.667 | 0.658
13 | CAL-12T | 1.22 | 1.28 | 1.31 | 1.26 | 1.28 | 1.18 | 1.16 | 1.16 | 0.339 | 0.324 | 0.301 | 0.28 | 0.749 | 0.704 | 0.901 | 0.751 |  |  |  | 
14 | NCI-H650 |  |  |  |  | 1.11 | 1.01 | 1.06 | 1.2 | 0.5 | 0.384 | 0.516 | 0.433 | 0.462 | 0.352 | 0.47 | 0.425 | 0.312 | 0.343 | 0.296 | 0.34
15 | NCI-H2228 | 0.922 | 0.907 | 1.15 | 0.692 | 0.906 | 0.772 | 0.86 | 0.729 | 0.615 | 0.493 | 0.49 | 0.456 | 0.643 | 0.564 | 0.889 | 0.696 |  |  |  | 
16 | NCI-H1792 | 0.701 | 0.605 | 0.637 | 0.68 |  |  |  |  | 0.829 | 0.667 | 0.77 | 0.781 | 0.517 | 0.453 | 0.287 | 0.414 | 0.63 | 0.479 | 0.491 | 0.554
17 | HCC-44 | 1.05 | 0.883 | 1.02 | 0.971 |  |  |  |  |  |  |  |  | 0.978 | 0.942 | 0.983 | 1.04 | 0.974 | 0.882 | 1.01 | 1.02
18 | IA-LM | 0.852 | 0.722 | 0.862 | 0.987 | 1.14 | 1.11 | 1.31 | 1.38 |  |  |  |  | 0.871 | 0.836 | 0.842 | 0.912 |  |  |  | 
19 | NCI-H358 |  |  |  |  | 0.878 | 0.603 | 0.829 | 0.535 | 0.177 | 0.149 | 0.149 | 0.148 | 0.748 | 0.587 | 0.604 | 0.458 | 0.227 | 0.205 | 0.246 | 0.256
20 | NCI-H1563 |  |  |  |  | 1.03 | 0.892 | 0.946 | 0.856 | 0.499 | 0.502 | 0.465 | 0.404 |  |  |  |  |  |  |  | 
